Data from PMC4445981, “The glutamate transport inhibitor DL-Threo-β-Benzyloxyaspartic acid (DL-TBOA) differentially affects SN38- and oxaliplatin-induced death of drug-resistant colorectal cancer cells” (BMC Cancer, 2015).

How the values were obtained:
Assay type in all cases: cell-based, human
p21^WAF1/Cip (p21) = assay: p21 protein level by Western blotting; conditions: 24 h
Procedure: (§1) Cells were grown to a confluence of 60-80 % and treated with chemotherapy, siRNA- or plasmid transfection as indicated. Cells were washed once in PBS, lysed in lysis buffer (1 % SDS, 0.1 M Tris pH 7.5, and 1 mM Na3VO4), sonicated, and protein content determined (DC assay, BioRad). Lysates were mixed 2:1with NuPage LDS sample buffer (Invitrogen). SDS-PAGE was carried out in NOVEX chambers with NuPAGE 10 % Bis-Tris gels under reducing and denaturing conditions, using BenchMark protein ladder (Invitrogen), and 15 μg protein per lane. Proteins were transferred to PVDF membranes, which were Ponceau S stained, blocked for 1 h at 37 °C in 5 % nonfat dry milk in TBST (0.01 M Tris/HCl, 0.15 M NaCl, 0.1 % Tween 20, pH 7.4), incubated overnight at 4 °C with primary antibodies diluted in blocking buffer, washed in TBST, incubated with secondary antibodies for 1 h, washed in TBST, and developed using BCIP/NBT (KPL). Bands were scanned and quantified using UN-SCAN-IT (Silk Scientific).
Supplementary file 12885_2015_1405_MOESM3_ESM.tiff: Additional file 3: Figure S3. Effects of DL-TBOA on cell death and survival parameters after chemotherapy treatment of HCT116 cells. Parental and drug-resistant HCT116 cell lines seeded in 6-well dishes were exposed to SN38 (0.8 μM) or oxaliplatin (20 μM), alone or in combination with 350 μM DL-TBOA as indicated, for 24 h. Equal amounts of protein per lane were separated by SDS-PAGE and the protein levels of p21, and PARP-1 (full-length and cleaved, the latter indicated by arrowheads) were determined by Western blotting. Top: Representative Western blots, with p150 as loading control. Bottom: Densitometric quantifications based on 3 independent experiments per condition. Data are means with S.E.M. error bars of 3 independent experiments. *) p < 0.05, **) p < 0.01, ***) p < 0.001,****) p < 0.0001 compared to the control group without drug or TBOA treatment; #) p < 0.05 compared to controls without TBOA treatment. Two-way ANOVA with Tukey post-test.

p53 = p53 protein level by Western blotting; conditions: 24 h
Procedure: Fig. 5 Effects of DL-TBOA on cell death and survival parameters after chemotherapy treatment. Parental and drug-resistant HCT116 (a) and LoVo (b) cell lines were exposed to SN38 (0.8 μM) or oxaliplatin (20 μM), alone or in combination with 350 μM DL-TBOA as indicated, for 24 h. Equal amounts of protein per lane were separated by SDS-PAGE and the protein level of p53 was determined by Western blotting. Top: Representative Western blots, with p150 as loading control. Bottom: Densitometric quantifications based on 3 independent experiments per condition. Data are means with S.E.M. error bars of 3 independent experiments. *) p < 0.05, **) p < 0.01, ***) p < 0.001,****) p < 0.0001 compared to the control group without drug or TBOA treatment; Two-way ANOVA with Tukey post-test
as §1

[1] = tested on: cellular reduced glutathione (GSH); assay: Cellular GSH level; conditions: parental HCT116 cells; 24 h; 0.8 μM SN38 or 20 μM oxaliplatin
Procedure: Fig. 4 Effect of glutamate transporter inhibition on cellular GSH levels. a Basal intracellular GSH levels were measured as described in Materials and Methods, and normalized to total protein in the samples. b-c Normalized basal GSH levels under control conditions, in HCT116 and LoVo parental and resistant cells after 24 h of treatment with 0.8 μM SN38 or 20 μM oxaliplatin, in absence or presence of DL-TBOA (350 μM) as shown. * p < 0.05 vs untreated control group (n = 5). One-way ANOVA followed by Dunnett post-test
Cells were seeded in 24-well plates (10^4 cells per well), treated the next day with chemotherapy and/or DL-TBOA and incubated for 24 h. Medium was removed and cells were washed twice with ice-cold PBS, which was removed and 500 μl ice-cold 1 % Sulfosalicylic acid was added per well. Cells were incubated on ice for at least 10 min. After centrifugation (1 min, 15,000 g), 10 μl lysate was used to determine total GSx content. To measure GSSG content, 130 μl sample was mixed with 55 μl 0.2 M Tris (pH 9) and 5 μl 2-Vinylpyridine. Tubes were vortexed carefully and incubated for at least 1 h at room temperature. 10 μl of this mix was mixed first with 90 μl of water in a 96-well plate and then with a reaction mix (0.1 M sodium phosphate buffer pH 7.5 containing 1 mM EDTA, 10 mM NADPH, 10 mM DTNB and 0.05 μl Glutathione reductase, 2U/μl). Measurements were taken every 30 s for 10 min in an ELISA plate reader (Thermo Scientific MultiScan FC) at 405 nm absorbance. GSH values were obtained by subtraction of GSSG values from GSx values.

PARP-1 cleavage = PARP-1 cleavage by Western blotting; conditions: HCT116 parental, oxaliplatin-resistant and SN38-resistant cells; 0.8 μM SN38, 24 h
Procedure: as §1
Supplementary file 12885_2015_1405_MOESM3_ESM.tiff: Additional file 3: Figure S3. […] Equal amounts of protein per lane were separated by SDS-PAGE and the protein levels of p21, and PARP-1 (full-length and cleaved, the latter indicated by arrowheads) were determined by Western blotting. […] Bottom: Densitometric quantifications based on 3 independent experiments per condition. […]

[2] = tested on: SLC1A1 localization in HCT116 cells; assay: Immunofluorescence analysis of SLC1A1 subcellular localization; conditions: parental HCT116 cells; 48 h; 0.8 μM SN38 or 20 μM oxaliplatin
Procedure: Immunofluorescence analysis was carried out essentially as in [47]. Cells grown on glass coverslips were fixed in 2 % paraformaldehyde, washed in TBST, permeabilized for 5 min (0.5 % Triton X-100 in TBST), blocked for 30 min in 5 % BSA in TBST, incubated with SLC1A1 primary antibody in TBST + 1 % BSA overnight at 4 °C, washed in TBST, and with Rhodamine-phalloidin and AlexaFluor488 conjugated secondary antibody (1:600 in TBS + 1 % BSA) for 1 h, followed by washing in TBST, and mounting in N-propyl-galleate mounting medium (2 % w/v in PBS/glycerol). DAPI was added for 3 min following incubation with the secondary antibody. Cells were visualized using the 60X/1.35 NA objective of an Olympus Bx63 epifluorescence microscope. […] Overlays were carried out using Adobe Photoshop software. No other image adjustment was performed.

[3] = tested on: parental and drug-resistant HCT116 and LoVo cell lines; assay: MTT viability assay, HCT116 and LoVo cell lines; conditions: Homo sapiens; parental HCT116 and LoVo; 48 h; 0.8 μM SN38 (highest dose tested); read-out: viable cells remaining
Procedure: Fig. 2 DL-TBOA augments SN38-induced death in SN38-resistant cells, but protects oxaliplatin-resistant cells from oxaliplatin-induced death. Parental and drug-resistant HCT116 and LoVo cell lines seeded in 96-well dishes were exposed to SN38 (0.1 or 0.8 μM) or oxaliplatin (0.8 or 20 μM), alone or in combination with 70 or 350 μM DL-TBOA as indicated, for 48 h. Viability was assessed by MTT assay. a-b Parental HCT116 cells, (c) SN38 resistant HCT116 cells, (d) Oxaliplatin-resistant HCT116 cells, (e-f) Parental LoVo cells, (g) SN38 resistant LoVo cells, (h) Oxaliplatin-resistant LoVo cells. Data are means with S.E.M. error bars of 3 independent experiments. *) p < 0.05, **) p < 0.01, ***) p < 0.001 compared to the control group without drug or TBOA treatment; #) p < 0.05 compared to controls without TBOA treatment. One-way ANOVA followed by Dunnett post-test
Cells were seeded at appropriate density (LoVo 10,000, and HCT116 5000 cells /100 μl) in growth medium in 96-well plates. Next day, cells were treated with inhibitors and/or chemotherapy in a total volume of 200 μl in growth medium and incubated for 48 h at 37 °C, 5 % CO2. The medium was replaced with 100 μl of 0.5 mg/ml 3-(4,5-dimethylthiazol-2-yl)-2,5-diphenyltetrazolium bromide (MTT) in growth medium. The reaction was stopped 1.5-2.5 h later by addition of 100 μl 20 % SDS in 0.02 M HCl, and incubation overnight to allow complete lysis of cells and formazan crystals. Absorbance was measured in an ELISA plate reader (Thermo Scientific MultiScan FC) at 550 nm. Data were background subtracted and % viability relative to controls calculated.

[4] = SN38-resistant HCT116 cells, 0.8 μM SN38 or 20 μM oxaliplatin
[5] = oxaliplatin-resistant HCT116 cells, 0.8 μM SN38
[6] = parental HCT116 cells, 0.8 μM SN38 or 20 μM oxaliplatin

CCc1c2c(nc3ccc(O)cc13)-c1cc3c(c(=O)n1C2)COC(=O)[C@]3(O)CC [SN38, 7-ethyl-10-hydroxycamptothecin]
p21 protein level (p21^WAF1/Cip (p21); [4]): modestly increased p21 expression
p21 protein level (p21^WAF1/Cip (p21); [5]): only SN38 induced p53 and p21 expression
p21 protein level (p21^WAF1/Cip (p21); [6]): markedly induced
p53 protein level (p53; [4]): essentially no effect on p53 expression
p53 protein level (p53; [5]): only SN38 induced p53 and p21 expression
p53 protein level (p53; [6]): markedly induced
effect on cellular GSH levels [1]: slightly increased GSH levels
PARP-1 cleavage (PARP-1 cleavage): induced by SN38 in parental and oxaliplatin-resistant, yet not in SN38-resistant, cells
SLC1A1 subcellular localization [2]: marked shift in SLC1A1 localization towards the perinuclear/nuclear region
viability at 0.8 µM [3]: ~20%
